Data: patent publication US11731980B1, “Furo[3,4-b]quinolone compounds as antibacterial agents” (KING FAISAL UNIVERSITY, priority 2023, dated 2023)
≈ marks a conversion by molar mass, not a printed value. Read-outs that look alike come from different tables or passages of the source.

How the values were obtained:
[1] = biological target: T1, DNA gyrase from E. coli (Escherichia coli, UniProt P0AES4+P0AES6); experiment: Inhibitory activity on E. coli DNA gyrase (Inspiralis assay); assay type: biochemical
T1 construct: purchased Inspiralis
T1 sequence (P0AES4 whole entry, one chain of several): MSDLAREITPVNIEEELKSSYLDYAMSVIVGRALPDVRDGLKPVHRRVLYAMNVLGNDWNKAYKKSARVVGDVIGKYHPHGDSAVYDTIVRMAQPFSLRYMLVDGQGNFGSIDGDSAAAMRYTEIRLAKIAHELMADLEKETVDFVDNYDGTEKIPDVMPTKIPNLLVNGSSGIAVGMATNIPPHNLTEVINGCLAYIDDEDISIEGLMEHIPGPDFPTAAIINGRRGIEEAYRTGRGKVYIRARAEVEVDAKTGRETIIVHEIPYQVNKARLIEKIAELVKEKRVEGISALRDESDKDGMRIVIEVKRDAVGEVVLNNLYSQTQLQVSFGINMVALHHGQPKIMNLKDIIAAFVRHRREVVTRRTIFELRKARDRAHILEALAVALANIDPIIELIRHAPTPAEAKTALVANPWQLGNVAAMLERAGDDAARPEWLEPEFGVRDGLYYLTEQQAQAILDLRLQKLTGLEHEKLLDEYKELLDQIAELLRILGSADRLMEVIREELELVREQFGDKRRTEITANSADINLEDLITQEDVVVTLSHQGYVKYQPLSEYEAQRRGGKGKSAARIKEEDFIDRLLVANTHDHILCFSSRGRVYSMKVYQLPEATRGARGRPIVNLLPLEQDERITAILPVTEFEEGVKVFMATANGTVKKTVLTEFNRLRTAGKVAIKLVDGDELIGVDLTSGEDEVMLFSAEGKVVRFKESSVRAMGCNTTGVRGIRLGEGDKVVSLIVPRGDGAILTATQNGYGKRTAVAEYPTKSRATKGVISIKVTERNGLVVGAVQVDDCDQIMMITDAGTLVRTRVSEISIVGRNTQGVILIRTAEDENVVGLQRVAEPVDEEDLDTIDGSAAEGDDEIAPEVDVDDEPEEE
Experimental: Inhibitory potencies were investigated utilizing the Inspiralis assay on streptavidin-coated 96-well microtiter plates. First, the plates were rehydrated with buffer (20 mM Tris-HCl with pH 7.6, 0.01% w/v BSA, 0.05% v/v Tween 20, 137 mM NaCl) and the biotinylated oligonucleotide was then immobilized. After washing off the unbound oligonucleotide, the enzyme test was performed. The reaction volume of 30 μL in buffer (35 mM Tris×HCl with pH 7.5, 4 mM MgCl2, 24 mM KCl, 2 mM DTT, 1.8 mM spermidine, 1 mM ATP, 6.5% w/v glycerol, 0.1 mg/mL albumin) contained 1.5 U of DNA gyrase from E. coli, 0.75 μg of relaxed pNO1 plasmid, and 3 μL solution of the inhibitor in 10% DMSO and 0.008% Tween 20. Reaction solutions were incubated at 37° C. for 30 min. After that, the TF buffer (50 mM NaOAc with pH 5.0, 50 mM NaCl and 50 mM MgCl2) was added to terminate the enzymatic reaction. After additional incubation for 30 min at rt, during which biotinoligonucleotide-plasmid triplex was formed, the unbound plasmid was washed off using TF buffer and SybrGOLD in T10 buffer (10 mM Tris HCl with pH 8.0 and 1 mM EDTA) was added. The fluorescence was measured with a microplate reader (BioTek Synergy H4, excitation: 485 nm, emission: 535 nm). Initial screening was done at 100 or 10 μM concentration of inhibitors. […] GraphPad Prism software was used to calculate the IC50 values. […]

[2] = test system: Mycobacterium tuberculosis H37Rv strain; experiment: Anti-tubercular alamar blue microplate assay (MIC); assay type: cell-based; conditions: 168 h, M. tuberculosis H37Rv, seven days at 37° C., read-out: anti-mycobacterial activity (MIC)
[3] = test system: Escherichia coli MTCC 443; experiment: In vitro antibacterial activity, CLSI M07-A10 dilution (MIC); assay type: cell-based; conditions: MTCC443
[4] = test system: Staphylococcus aureus ATCC 29213; experiment: as above; assay type: cell-based; conditions: ATCC29213
[5] = test system: Staphylococcus aureus ATCC BAA-1556 (MERSA resistant); experiment: as above; assay type: cell-based; conditions: ATCCBAA1556
[6] = test system: Klebsiella pneumonia MTCC 618; experiment: as above; assay type: cell-based; conditions: Klebsiella pneumoniae, MTCC618
[7] = test system: Enterococcus faecium ATCC 35667; experiment: as above; assay type: cell-based; conditions: ATCC35667
[8] = test system: Enterococcus faecium ATCC 51559 (VRE resistant); experiment: as above; assay type: cell-based
[9] = test system: Bacillus subtilis MTCC 441; experiment: as above; assay type: cell-based; conditions: MTCC441
[10] = test system: Pseudomonas aeruginosa MTCC 741; experiment: as above; assay type: cell-based; conditions: MTCC741
[11] = test system: Staphylococcus epidermidis; experiment: as above; assay type: cell-based

In the case of `CCCCCN(C)Cc1cc(-c2c3c(nc4cc(NC(=O)C5CC5)ccc24)COC3=O)ccc1C(=O)O` [Compound 8, 4-(6-(cyclopropanecarboxamido)-1-oxo-1,3-dihydrofuro[3,4-b]quinolin-9-yl)-2-((methyl(pentyl)amino)methyl)benzoic acid], the IC50 [1] is reported as 550 nM, the MIC [2] is reported as 4 µg/mL (≈ 7.97 µM) and the MIC ([3]; Escherichia coli MTCC 443, read-out: MIC) is reported as 16 µg/mL (≈ 31.9 µM). It also gave an MIC ([4]; Staphylococcus aureus ATCC 29213, read-out: MIC) of 16 µg/mL (≈ 31.9 µM), an MIC ([5]; Staphylococcus aureus ATCC BAA-1556 (MERSA resistant), read-out: MIC) of 16 µg/mL (≈ 31.9 µM) and an MIC ([6]; Klebsiella pneumonia MTCC 618, read-out: MIC) of 8 µg/mL (≈ 15.9 µM). The MIC ([7]; Enterococcus faecium ATCC 35667, read-out: MIC) was 8 µg/mL (≈ 15.9 µM), the MIC ([8]; Enterococcus faecium ATCC 51559 (VRE resistant), read-out: MIC) was 16 µg/mL (≈ 31.9 µM) and the MIC ([9]; Bacillus subtilis MTCC 441, read-out: MIC) was 8 µg/mL (≈ 15.9 µM). For the same compound, the MIC ([10]; Pseudomonas aeruginosa MTCC 741, read-out: MIC) was 8 µg/mL (≈ 15.9 µM) and the MIC ([11]; read-out: MIC) was 16 µg/mL (≈ 31.9 µM).
With `CN[C@H](CC(C)C)C(=O)N[C@H]1C(=O)N[C@@H](CC(N)=O)C(=O)N[C@H]2C(=O)N[C@H]3C(=O)N[C@H](C(=O)N[C@H](C(=O)O)c4cc(O)cc(O)c4-c4cc3ccc4O)[C@H](O)c3ccc(c(Cl)c3)Oc3cc2cc(c3O[C@@H]2O[C@H](CO)[C@@H](O)[C@H](O)[C@H]2O[C@H]2C[C@](C)(N)[C@H](O)[C@H](C)O2)Oc2ccc(cc2Cl)[C@H]1O` [Vancomycin, reference compound] the MIC ([3]; Escherichia coli) was greater than 128 µg/mL, the MIC ([4]; Staphylococcus aureus) was 1 µg/mL (≈ 0.69 µM) and the MIC ([5]; Staphylococcus aureus) was 1 µg/mL (≈ 0.69 µM). For the same compound, the MIC [6] was greater than 128 µg/mL, the MIC ([7]; Enterococcus faecium) was 0.5 µg/mL (≈ 0.345 µM) and the MIC ([8]; Enterococcus faecium) was greater than 128 µg/mL. The MIC ([9]; Bacillus subtilis) was 0.5 µg/mL (≈ 0.345 µM), the MIC ([10]; Pseudomonas aeruginosa) was greater than 128 µg/mL and the MIC [11] was 1 µg/mL (≈ 0.69 µM).
